ChEMBL document CHEMBL1154789, “Novel cyclic-imide peptidomimetics as aminopeptidase N inhibitors. Design, chemistry and activity evaluation. Part I” (Eur J Med Chem, 2009)

What was measured:
H22 = experiment: Antimetastatic activity in mouse H22 cells xenografted in mouse assessed as reduction of metastasized nodes at 50 mg/kg, po administered 6 days per week for 2 weeks measured after 1 day last post dose; assay type: functional; parameters: scale not given: the % may be the effect or the level left
HL-60 = experiment: Cytotoxicity against human HL60 cells after 48 hrs by MTT assay; assay type: functional, cell-based; settings: HL-60, 48 h
Aminopeptidase N = target: T1, Aminopeptidase N (Sus scrofa, UniProt P15145); experiment: Inhibition of pig kidney microsomes aminopeptidase N preincubated for 30 mins
T1 sequence (P15145 whole entry): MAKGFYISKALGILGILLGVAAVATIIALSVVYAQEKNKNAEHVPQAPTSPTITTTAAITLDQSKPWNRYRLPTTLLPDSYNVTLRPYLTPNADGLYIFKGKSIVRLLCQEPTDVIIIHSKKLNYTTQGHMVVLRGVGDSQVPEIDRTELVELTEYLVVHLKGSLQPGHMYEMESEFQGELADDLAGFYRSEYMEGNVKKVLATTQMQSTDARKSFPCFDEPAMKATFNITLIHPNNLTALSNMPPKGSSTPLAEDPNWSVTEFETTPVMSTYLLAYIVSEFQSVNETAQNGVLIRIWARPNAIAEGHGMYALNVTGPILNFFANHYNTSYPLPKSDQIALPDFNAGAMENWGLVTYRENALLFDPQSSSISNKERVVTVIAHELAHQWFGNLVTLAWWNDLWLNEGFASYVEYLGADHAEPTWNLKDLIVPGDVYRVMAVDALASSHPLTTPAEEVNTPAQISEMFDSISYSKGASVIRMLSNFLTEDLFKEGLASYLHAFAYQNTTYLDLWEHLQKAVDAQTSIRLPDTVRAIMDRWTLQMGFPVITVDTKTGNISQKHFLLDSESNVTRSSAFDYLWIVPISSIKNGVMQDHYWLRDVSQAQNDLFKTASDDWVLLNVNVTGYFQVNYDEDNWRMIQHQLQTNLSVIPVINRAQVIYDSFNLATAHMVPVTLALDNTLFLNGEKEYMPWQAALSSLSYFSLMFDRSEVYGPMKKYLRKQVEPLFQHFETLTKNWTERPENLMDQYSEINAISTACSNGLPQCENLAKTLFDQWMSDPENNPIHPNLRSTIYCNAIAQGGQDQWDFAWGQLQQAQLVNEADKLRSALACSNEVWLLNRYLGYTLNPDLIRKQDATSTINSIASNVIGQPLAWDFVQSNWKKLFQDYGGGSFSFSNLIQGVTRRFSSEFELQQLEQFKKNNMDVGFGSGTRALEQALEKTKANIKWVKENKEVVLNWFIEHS

Compound | IC50 (Aminopeptidase N) [µM] | Activity (H22) [%] | IC50 (HL-60) [µM]
COc1cc(C(=O)N[C@H]2CCC(=O)N(CC(=O)NO)C2=O)cc(OC)c1OC |  | 81.56 | 136
COC(=O)[C@H](CCCNC(=N)N[N+](=O)[O-])NC(=O)CN1C(=O)CC[C@H](NC(=O)c2cc(OC)c(OC)c(OC)c2)C1=O | 42 |  | 86
CC(C)C[C@H](NC(=O)CN1C(=O)CC[C@H](NC(=O)c2cc(O)c(O)c(O)c2)C1=O)C(=O)O | 55.4 |  | 
O=C(O)CN1C(=O)CC[C@H](NC(=O)c2cc(O)c(O)c(O)c2)C1=O | 47.3 |  | 
O=C(O)CNC(=O)CN1C(=O)CC[C@H](NC(=O)c2cc(O)c(O)c(O)c2)C1=O | 63.2 |  | 
CC(C)C[C@H](NC(=O)[C@@H](O)[C@H](N)Cc1ccccc1)C(=O)O [UBENIMEX] |  | 60.25 | 245

Further molecules by falling IC50 (Aminopeptidase N), results first:

IC50 (Aminopeptidase N) [µM] | Compound | Activity (H22) [%] | IC50 (HL-60) [µM]
50.3 | COC(=O)[C@@H](CS)NC(=O)CN1C(=O)CC[C@H](NC(=O)c2cc(OC)c(OC)c(OC)c2)C1=O |  | 
50 | COC(=O)[C@@H](CCl)NC(=O)CN1C(=O)CC[C@H](NC(=O)c2cc(OC)c(OC)c(OC)c2)C1=O |  | 
38.1 | COC(=O)[C@H](CCCCNC(=O)OCc1ccccc1)NC(=O)CN1C(=O)CC[C@H](NC(=O)c2cc(OC)c(OC)c(OC)c2)C1=O |  | 
21.7 | COC(=O)CC(NC(=O)CN1C(=O)CC[C@H](NC(=O)c2cc(OC)c(OC)c(OC)c2)C1=O)C(=O)OC (single isomer, unassigned) |  | 
10.3 | O=C(CN1C(=O)CC[C@H](NC(=O)c2cc(O)c(O)c(O)c2)C1=O)N[C@@H](Cc1ccccc1)C(=O)O |  | 
4.3 | O=C(CN1C(=O)CC[C@H](NC(=O)c2cc(O)c(O)c(O)c2)C1=O)NO |  | 
